Active and inactive are the calls of the source.
What was measured:
[1] = reduction of Shn3 3'UTR-driven luciferase in osteoblasts – cell-based, Clone20 osteoblasts, firefly luciferase, cherry-picked, dose response (AID 624132); type: functional;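 also: firefly luciferase luminescence from reporter carrying the Shn3 3'UTR in osteoblasts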
[2] = Counterscreen for activators of the function of SWI/SNF related, matrix associated, actin dependent regulator of chromatin, subfamily a, member 2 (SMARCA2, BRM): Luminescence-based cell-based high throughput dose response assay to identify non-selective compounds using the VP16 reporter assay.; type: functional
[3] = loss of viability in HepG2 cells – cell-based, CellTiter-Glo, cherry-picked, cytotoxicity control for Shn3 inhibitor project, dose response (AID 624134); type: functional
[4] = target: Delta-type opioid receptor (Homo sapiens, UniProt P41143); test: Counterscreen for agonists of heterodimerization of the mu 1 (OPRM1) and delta 1 (OPRD1) opioid receptors: Luminescence-based cell-based high throughput dose response assay to identify agonists of OPRD1 homodimerization. [Related pubchem assays (depositor defined):AID504326, AID504355, AID504692, AID504904, AID504905]; type: functional
[5] = non-specific 3'UTR reporter inhibition in Clone20-Shn3RL – cell-based, Renilla luciferase, cherry-picked, counter-screen for Shn3 inhibitor project, dose response (AID 624133); type: functional
Mu-type opioid receptor = Mu-type opioid receptor (Homo sapiens, UniProt P35372); test: Counterscreen for agonists of heterodimerization of the mu 1 (OPRM1) and delta 1 (OPRD1) opioid receptors: Luminescence-based cell-based high throughput dose response assay to identify agonists of OPRM1 homodimerization.; type: functional;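 also: U2OS cells expressing OPRM1 and beta-arrestin as split beta-galactosidase partners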
Mu-type opioid receptor, sequence (P35372 whole entry): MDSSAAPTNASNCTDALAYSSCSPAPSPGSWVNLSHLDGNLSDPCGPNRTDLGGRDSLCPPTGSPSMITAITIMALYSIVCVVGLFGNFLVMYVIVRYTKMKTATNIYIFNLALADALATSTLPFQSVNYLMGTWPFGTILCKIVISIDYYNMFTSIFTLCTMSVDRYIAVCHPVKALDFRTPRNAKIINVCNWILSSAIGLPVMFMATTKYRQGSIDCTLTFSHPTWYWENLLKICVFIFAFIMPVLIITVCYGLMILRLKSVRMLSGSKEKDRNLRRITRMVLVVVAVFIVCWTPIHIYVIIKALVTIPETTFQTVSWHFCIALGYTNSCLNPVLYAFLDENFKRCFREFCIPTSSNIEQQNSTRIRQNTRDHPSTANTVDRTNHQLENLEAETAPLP

[6] = target: SWI/SNF-related matrix-associated actin-dependent regulator of chromatin subfamily A member 2 (Homo sapiens, UniProt P51531); test: Luminescence-based cell-based high throughput dose response assay to identify activators of the function of SWI/SNF related, matrix associated, actin dependent regulator of chromatin, subfamily a, member 2 (SMARCA2, BRM).; type: functional
SWI/SNF-related matrix-associated actin-dependent regulator of chromatin subfamily A member 2, sequence (P51531 whole entry): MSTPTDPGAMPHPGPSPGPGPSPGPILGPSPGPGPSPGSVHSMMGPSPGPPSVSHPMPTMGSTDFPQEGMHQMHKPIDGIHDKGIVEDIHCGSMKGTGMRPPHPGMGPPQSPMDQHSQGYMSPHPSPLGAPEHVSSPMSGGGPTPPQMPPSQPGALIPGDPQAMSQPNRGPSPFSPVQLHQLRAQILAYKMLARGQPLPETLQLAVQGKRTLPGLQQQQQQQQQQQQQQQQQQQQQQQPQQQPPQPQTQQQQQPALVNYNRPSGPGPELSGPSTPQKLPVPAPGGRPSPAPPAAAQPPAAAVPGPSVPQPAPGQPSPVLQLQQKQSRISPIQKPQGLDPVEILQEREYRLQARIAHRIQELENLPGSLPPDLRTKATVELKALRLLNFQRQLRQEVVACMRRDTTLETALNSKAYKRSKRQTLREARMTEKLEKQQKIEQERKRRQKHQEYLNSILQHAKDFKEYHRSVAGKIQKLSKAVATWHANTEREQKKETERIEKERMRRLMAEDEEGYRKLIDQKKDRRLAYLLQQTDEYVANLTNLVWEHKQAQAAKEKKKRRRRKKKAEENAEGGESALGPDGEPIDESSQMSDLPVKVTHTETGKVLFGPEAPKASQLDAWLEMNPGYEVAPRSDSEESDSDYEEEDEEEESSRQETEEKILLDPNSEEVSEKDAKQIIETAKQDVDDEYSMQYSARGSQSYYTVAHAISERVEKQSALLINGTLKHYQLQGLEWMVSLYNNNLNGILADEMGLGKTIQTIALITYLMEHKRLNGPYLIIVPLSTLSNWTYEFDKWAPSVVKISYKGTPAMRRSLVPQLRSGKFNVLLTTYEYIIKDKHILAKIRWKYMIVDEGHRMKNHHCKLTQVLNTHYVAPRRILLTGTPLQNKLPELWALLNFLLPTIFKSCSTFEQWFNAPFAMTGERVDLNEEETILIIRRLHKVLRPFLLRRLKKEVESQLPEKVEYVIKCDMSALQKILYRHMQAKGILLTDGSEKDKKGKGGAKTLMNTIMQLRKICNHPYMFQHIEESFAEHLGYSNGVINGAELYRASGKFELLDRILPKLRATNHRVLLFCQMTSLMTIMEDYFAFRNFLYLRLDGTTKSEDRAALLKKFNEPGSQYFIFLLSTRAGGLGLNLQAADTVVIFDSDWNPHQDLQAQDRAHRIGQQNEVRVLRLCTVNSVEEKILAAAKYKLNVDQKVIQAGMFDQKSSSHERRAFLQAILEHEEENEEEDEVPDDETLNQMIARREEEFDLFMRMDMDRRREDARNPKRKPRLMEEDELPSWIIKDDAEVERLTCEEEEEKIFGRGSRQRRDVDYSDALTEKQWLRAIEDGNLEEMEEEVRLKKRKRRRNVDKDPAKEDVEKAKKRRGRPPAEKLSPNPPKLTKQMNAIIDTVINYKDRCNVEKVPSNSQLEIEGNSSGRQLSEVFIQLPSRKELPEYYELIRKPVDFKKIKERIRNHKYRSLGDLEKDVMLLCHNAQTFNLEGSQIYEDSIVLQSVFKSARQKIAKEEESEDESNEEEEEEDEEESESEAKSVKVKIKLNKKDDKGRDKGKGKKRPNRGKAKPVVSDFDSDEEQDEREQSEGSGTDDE

[7] = target: 5-hydroxytryptamine receptor 5A (Homo sapiens, UniProt P47898); test: Counterscreen for agonists of OPRM1-OPRD1 heterodimerization: luminescence-based cell-based high throughput dose response assay to identify agonists of 5-hydroxytryptamine (serotonin) 5A receptor (HTR5A). [Related pubchem assays (depositor defined):AID504326, AID504355, AID504692, AID504904, AID504905]; type: functional
5-hydroxytryptamine receptor 5A, sequence (P47898 whole entry): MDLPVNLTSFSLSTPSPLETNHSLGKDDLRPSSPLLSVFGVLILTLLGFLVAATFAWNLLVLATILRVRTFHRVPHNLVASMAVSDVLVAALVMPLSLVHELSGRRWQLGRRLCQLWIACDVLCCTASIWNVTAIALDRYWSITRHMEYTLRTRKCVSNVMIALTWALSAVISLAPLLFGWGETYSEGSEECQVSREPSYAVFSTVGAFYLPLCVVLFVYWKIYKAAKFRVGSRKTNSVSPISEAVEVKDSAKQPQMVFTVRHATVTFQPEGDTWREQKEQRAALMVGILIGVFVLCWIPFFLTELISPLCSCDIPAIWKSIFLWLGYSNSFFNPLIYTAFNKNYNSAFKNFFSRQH

Streptococcus = test: GAS UMAA2166 growth inhibition – luminescence, BacTiterGlo, counter-screen for streptokinase expression inhibitor project, dose response (AID 1915); type: functional, organism-based;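 also: potency for reduction of bacterial viability or growth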
[8] = target: T1, Carboxy-terminal domain RNA polymerase II polypeptide A small phosphatase 1 (Homo sapiens, UniProt Q9GZU7); test: CTDSP1 inhibitors, concentration-response, biochemical, absorbance readout, ultra-high-throughput screen actives (AID 540297); type: functional
T1 sequence (Q9GZU7 whole entry): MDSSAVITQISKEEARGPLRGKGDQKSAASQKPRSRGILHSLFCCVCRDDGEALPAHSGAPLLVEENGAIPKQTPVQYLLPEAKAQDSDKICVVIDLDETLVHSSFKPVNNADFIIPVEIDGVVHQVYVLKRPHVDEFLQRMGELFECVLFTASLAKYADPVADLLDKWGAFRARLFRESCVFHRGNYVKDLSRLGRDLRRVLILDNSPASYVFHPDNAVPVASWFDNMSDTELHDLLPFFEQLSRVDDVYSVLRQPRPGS

Streptokinase A = target: T2, Streptokinase A (Streptococcus pyogenes serotype M1, UniProt P10520); test: viability-normalized secreted streptokinase activity reduction – plasminogen activation absorbance, OD405, dose response (AID 1914); type: functional, Streptococcus pyogenes M1 GAS;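 also: secreted streptokinase activity via plasminogen activation per viability signal from cell pellet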
T2 sequence (P10520 whole entry): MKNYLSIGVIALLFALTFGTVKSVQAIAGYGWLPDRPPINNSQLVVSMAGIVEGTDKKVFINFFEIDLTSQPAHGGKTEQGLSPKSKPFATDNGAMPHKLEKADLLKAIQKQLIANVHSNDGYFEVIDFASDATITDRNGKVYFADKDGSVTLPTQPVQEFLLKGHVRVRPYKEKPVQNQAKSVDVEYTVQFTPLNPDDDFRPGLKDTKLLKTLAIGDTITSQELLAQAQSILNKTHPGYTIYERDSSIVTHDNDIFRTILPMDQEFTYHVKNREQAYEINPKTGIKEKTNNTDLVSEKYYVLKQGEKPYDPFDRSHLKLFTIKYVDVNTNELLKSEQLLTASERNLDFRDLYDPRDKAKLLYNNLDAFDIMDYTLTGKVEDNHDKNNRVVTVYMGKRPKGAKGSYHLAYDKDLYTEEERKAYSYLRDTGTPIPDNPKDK

[9] = target: DNA (cytosine-5)-methyltransferase 1 (Homo sapiens, UniProt P26358); test: inhibition of DNA methylation by DNMT1 – biochemical, fluorescent molecular beacon, confirmation (AID 602386); type: functional
DNA (cytosine-5)-methyltransferase 1, sequence (P26358 whole entry): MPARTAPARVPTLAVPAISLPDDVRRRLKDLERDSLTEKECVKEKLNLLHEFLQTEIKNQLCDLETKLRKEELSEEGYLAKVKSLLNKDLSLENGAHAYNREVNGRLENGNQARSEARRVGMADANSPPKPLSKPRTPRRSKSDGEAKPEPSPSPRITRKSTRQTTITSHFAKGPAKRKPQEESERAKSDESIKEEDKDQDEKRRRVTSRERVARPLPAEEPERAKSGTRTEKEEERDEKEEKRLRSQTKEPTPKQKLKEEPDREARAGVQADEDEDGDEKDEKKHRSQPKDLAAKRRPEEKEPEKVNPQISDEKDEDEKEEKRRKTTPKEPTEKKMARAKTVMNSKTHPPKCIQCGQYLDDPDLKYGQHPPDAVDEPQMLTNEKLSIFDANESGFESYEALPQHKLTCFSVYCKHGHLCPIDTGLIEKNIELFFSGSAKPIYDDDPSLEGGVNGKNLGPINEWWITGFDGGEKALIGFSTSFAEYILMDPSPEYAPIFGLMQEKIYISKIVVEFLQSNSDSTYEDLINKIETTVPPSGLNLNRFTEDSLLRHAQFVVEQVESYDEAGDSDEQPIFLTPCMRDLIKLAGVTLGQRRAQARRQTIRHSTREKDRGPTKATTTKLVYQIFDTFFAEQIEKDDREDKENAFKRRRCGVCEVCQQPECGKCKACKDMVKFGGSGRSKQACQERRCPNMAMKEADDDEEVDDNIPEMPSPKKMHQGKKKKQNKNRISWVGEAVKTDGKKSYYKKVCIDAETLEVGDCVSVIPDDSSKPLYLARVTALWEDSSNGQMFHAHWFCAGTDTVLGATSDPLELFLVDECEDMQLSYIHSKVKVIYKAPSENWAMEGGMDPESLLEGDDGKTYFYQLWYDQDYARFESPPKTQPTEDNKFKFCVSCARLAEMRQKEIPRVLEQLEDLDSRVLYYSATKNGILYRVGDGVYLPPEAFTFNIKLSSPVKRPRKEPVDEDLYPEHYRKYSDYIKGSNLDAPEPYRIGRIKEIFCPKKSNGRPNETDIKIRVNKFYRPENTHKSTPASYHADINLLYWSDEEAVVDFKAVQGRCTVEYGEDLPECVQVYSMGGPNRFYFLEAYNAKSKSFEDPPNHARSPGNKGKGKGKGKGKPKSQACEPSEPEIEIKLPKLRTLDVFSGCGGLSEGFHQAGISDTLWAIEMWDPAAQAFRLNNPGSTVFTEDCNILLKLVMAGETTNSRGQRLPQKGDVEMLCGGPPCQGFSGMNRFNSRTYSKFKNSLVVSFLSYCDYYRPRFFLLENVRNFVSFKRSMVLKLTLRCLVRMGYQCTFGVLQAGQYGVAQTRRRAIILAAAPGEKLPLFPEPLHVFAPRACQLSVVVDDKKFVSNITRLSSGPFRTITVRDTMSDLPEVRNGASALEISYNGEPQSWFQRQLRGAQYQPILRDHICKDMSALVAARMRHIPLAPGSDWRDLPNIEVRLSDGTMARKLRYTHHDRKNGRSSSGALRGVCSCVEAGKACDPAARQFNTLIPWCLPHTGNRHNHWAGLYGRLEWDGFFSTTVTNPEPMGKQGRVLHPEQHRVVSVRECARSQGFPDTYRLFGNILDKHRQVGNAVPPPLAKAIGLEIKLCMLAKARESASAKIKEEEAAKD

[10] = system: Streptococcus sp. 'group A'; test: Streptococcus pyogenes SK(-)GAS viability under kanamycin – luminescence, BacTiterGlo, confirmation, counter-screen for streptokinase expression inhibitor project, dose response (AID 1900); type: functional, organism-based
Beta-galactosidase = Beta-galactosidase (Escherichia coli, UniProt Q8VNN2); test: Dose response counterscreen for EBI2 assay utilizing the enzyme, b-galactosidase.; type: functional
Beta-galactosidase, sequence (Q8VNN2 whole entry): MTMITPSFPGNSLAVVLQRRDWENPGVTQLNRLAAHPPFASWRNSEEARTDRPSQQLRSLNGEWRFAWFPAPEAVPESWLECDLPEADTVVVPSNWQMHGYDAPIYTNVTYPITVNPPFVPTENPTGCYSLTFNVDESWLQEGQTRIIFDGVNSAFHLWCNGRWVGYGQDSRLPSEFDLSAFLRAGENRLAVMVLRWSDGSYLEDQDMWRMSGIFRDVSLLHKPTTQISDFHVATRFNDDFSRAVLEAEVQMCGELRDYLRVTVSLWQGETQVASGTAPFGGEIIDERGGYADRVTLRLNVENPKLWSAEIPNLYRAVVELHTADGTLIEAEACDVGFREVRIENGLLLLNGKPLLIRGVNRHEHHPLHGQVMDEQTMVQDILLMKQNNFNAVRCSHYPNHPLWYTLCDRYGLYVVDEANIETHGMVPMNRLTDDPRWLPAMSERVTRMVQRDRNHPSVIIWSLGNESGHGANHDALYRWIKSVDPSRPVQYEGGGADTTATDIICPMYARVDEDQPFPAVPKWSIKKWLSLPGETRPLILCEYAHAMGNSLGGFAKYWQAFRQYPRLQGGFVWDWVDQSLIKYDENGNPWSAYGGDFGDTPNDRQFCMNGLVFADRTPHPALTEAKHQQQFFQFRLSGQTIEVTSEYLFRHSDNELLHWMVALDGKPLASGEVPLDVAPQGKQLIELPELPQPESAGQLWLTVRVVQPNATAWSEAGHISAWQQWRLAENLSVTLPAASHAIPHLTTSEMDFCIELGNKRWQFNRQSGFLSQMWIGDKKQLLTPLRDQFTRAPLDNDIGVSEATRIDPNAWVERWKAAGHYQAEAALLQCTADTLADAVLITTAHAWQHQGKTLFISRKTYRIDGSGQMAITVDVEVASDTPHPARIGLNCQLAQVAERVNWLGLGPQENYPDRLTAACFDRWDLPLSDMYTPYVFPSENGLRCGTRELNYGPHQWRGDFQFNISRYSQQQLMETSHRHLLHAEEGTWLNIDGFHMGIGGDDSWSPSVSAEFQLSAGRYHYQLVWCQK

Vero = test: viability loss in Vero cells – cell-based, plate reader, cherry-pick samples, cytotoxicity control, dose response (AID 687020); type: functional; conditions: Chlorocebus sabaeus
Interleukin-8 [11] = target: T3, Interleukin-8 (Homo sapiens, UniProt P10145); test: Dose Response confirmation of uHTS small molecule hits for cystic fibrosis induced NFkb Inhibitors in a PAF-induced IL8 counterscreen.; type: functional; conditions: read-out: IC50_Mean
T3 sequence (P10145 whole entry): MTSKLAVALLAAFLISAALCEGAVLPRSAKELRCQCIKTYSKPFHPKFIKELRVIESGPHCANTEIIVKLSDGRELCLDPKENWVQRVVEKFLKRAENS

Interleukin-8 [12] = target: T3, Interleukin-8; test: Dose Response confirmation of uHTS small molecule hits for cystic fibrosis induced NFkb Inhibitors in a TNFa-induced IL8 counterscreen.; type: functional; conditions: read-out: IC50_Mean

**Q.** Which AC50 [1] does the source give for `CN1CCN(Cc2nc3ccccc3c(=O)n2Cc2nc(-c3ccc4ccccc4c3)cs2)CC1` here?
**A.** 11 µM (active)

**Q.** And the EC50 [2]?
**A.** > 91.2 µM (inactive)

**Q.** What about the AC50 [3] of the same compound?
**A.** 8.34 µM (active)

**Q.** And the EC50 [4]?
**A.** > 92.5 µM (inactive)

**Q.** What about the AC50 [5] of the same compound?
**A.** 11.7 µM (active)

**Q.** What about the EC50 (Mu-type opioid receptor) of the same compound?
**A.** > 92.5 µM (inactive)

**Q.** What about the EC50 [6] of the same compound?
**A.** > 91.2 µM (inactive)

**Q.** And the EC50 [7]?
**A.** > 92.5 µM (inactive)

**Q.** Which EC50 (Streptococcus) does the source give for `CC(=O)OCC1=C(C(=O)O)N2C(=O)C(NC(=O)c3ccc(COc4cccc(Cl)c4Cl)o3)C2SC1` (configuration not stated) here?
**A.** 8.94 µM (active)

**Q.** What about the IC50 [8] of the same compound?
**A.** 5.07 µM (active)

**Q.** What about the EC50 (Streptokinase A) of the same compound?
**A.** 12.6 µM (active)

**Q.** What about the IC50 [9] of the same compound?
**A.** 8.67 µM (active)

**Q.** What about the EC50 [10] of the same compound?
**A.** 5.04 µM (active)

**Q.** With `O=C(c1cc2cc(Br)ccc2[nH]1)N1CCC2(CC1)OCCO2` as the compound, how does the IC50 (Beta-galactosidase) read?
**A.** > 80 µM (inactive)

**Q.** For `CCCCc1cc(=O)oc2cc(C)cc(OCC(=O)N3CCC(C(N)=O)CC3)c12`, which AC50 (Vero) is on record?
**A.** 37.5 µM (active)

**Q.** Which IC50 (Interleukin-8 [11]) does the source give for `O=C(c1ccccc1)C1OC1C(=O)c1ccccc1` (configuration not stated) here?
**A.** 2.84 µM (active)

**Q.** And the IC50 (Interleukin-8 [12])?
**A.** 6 µM (active)

From ChEMBL document CHEMBL1201862, “PubChem BioAssay data set” (2004)
